{
  "source": "patent US7687511B2",
  "about": "“Substituted dihydropyrimidines, dihydropyrimidones and dihydropyrimidinethiones as calcium channel blockers” (priority 2002, dated 2010)",
  "data": [
    {"smiles": "CCCCCCCCCCCCCCCc1cccc(OC)c1C1NC(=O)NC(C)=C1C(=O)OCC", "note": "(stereo not drawn) [PPK-22, 5-ethoxycarbonyl-4-(2-methoxy-6-pentadecylphenyl)-6-methyl-3,4-dihydropyrimidin-2(1H)-one]", "values": [
      {"measurement": "melting point", "value": "91 to 93", "unit": "°C"}
    ]},
    {"smiles": "CCCCCCCCCCCCCCCc1cccc(OCC)c1C1NC(=O)NC(C)=C1C(=O)OC", "note": "(stereo not drawn) [PPK-23, 5-methoxycarbonyl-4-(2-ethoxy-6-pentadecylphenyl)-6-methyl-3,4-dihydropyrimidin-2(1H)-one]", "values": [
      {"measurement": "melting point", "value": "127 to 129", "unit": "°C"}
    ]},
    {"smiles": "CCCCCCCCCCCCCCCc1cccc(OC)c1C1NC(=O)NC(C)=C1C(=O)OC", "note": "(stereo not drawn) [PPK-24, 5-methoxycarbonyl-4-(2-methoxy-6-pentadecylphenyl)-6-methyl-3,4-dihydropyrimidin-2(1H)-one]", "values": [
      {"measurement": "melting point", "value": "101 to 102", "unit": "°C"}
    ]},
    {"smiles": "CCCCCCCCCCCCCCCc1cccc(OCC)c1C1NC(=O)NC(C)=C1C(=O)OCC", "note": "(stereo not drawn) [PPK-25, 5-ethoxycarbonyl-4-(2-ethoxy-6-pentadecylphenyl)-6-methyl-3,4-dihydropyrimidin-2(1H)-one]", "values": [
      {"measurement": "melting point", "value": "99 to 100", "unit": "°C"}
    ]},
    {"smiles": "CCCCCCCCCCCCCCCc1cccc(OC)c1C1C(C(=O)OC)=C(C)NC(=O)N1C(=O)OCC", "note": "(stereo not drawn) [PPK-30, 3,6-dihydro-4-methyl-6-[2-methoxy-6-pentadecylphenyl]-2-oxo-1,5-(2H)-pyrimidinedicarboxylic acid 1-ethyl 5-methyl diester]", "values": [
      {"measurement": "melting point", "value": "121 to 122", "unit": "°C"}
    ]},
    {"smiles": "CCCCCCCCCCCCCCCc1cccc(OC)c1C1C(C(=O)OCC)=C(C)NC(=O)N1C(=O)OCC", "note": "(stereo not drawn) [PPK-31, 3,6-dihydro-4-methyl-6-[2-methoxy-6-pentadecylphenyl]-2-oxo-1,5-(2H)-pyrimidinedicarboxylic acid bis(ethyl ester)]", "values": [
      {"measurement": "melting point", "value": "109 to 110", "unit": "°C"}
    ]},
    {"smiles": "CCCCCCCCCCCCCCCc1cccc(OC)c1C1C(C(=O)OC(C)C)=C(C)NC(=O)N1C(=O)OCC", "note": "(stereo not drawn) [PPK-32, 3,6-dihydro-4-methyl-6-[2-methoxy-6-pentadecylphenyl]-2-oxo-1,5-(2H)-pyrimidinedicarboxylic acid 1-ethyl 5-isopropyl diester]", "values": [
      {"measurement": "melting point", "value": 100, "unit": "°C"}
    ]},
    {"smiles": "CCCCCCCCCCCCCCCc1cccc(OCC)c1C1C(C(=O)OC)=C(C)NC(=O)N1C(=O)OCC", "note": "(stereo not drawn) [PPK-33, 3,6-dihydro-4-methyl-6-[2-ethoxy-6-pentadecylphenyl]-2-oxo-1,5-(2H)-pyrimidinedicarboxylic acid 1-ethyl 5-methyl diester]", "values": [
      {"measurement": "melting point", "value": 103, "unit": "°C"}
    ]},
    {"smiles": "CCCCCCCCCCCCCCCc1cccc(OCC)c1C1C(C(=O)OCC)=C(C)NC(=O)N1C(=O)OCC", "note": "(stereo not drawn) [PPK-34, 3,6-dihydro-4-methyl-6-[2-ethoxy-6-pentadecylphenyl]-2-oxo-1,5-(2H)-pyrimidinedicarboxylic acid 1,5-diethyl diester]", "values": [
      {"measurement": "melting point", "value": 112, "unit": "°C"}
    ]},
    {"smiles": "CCCCCCCCCCCCCCCc1cccc(OC(C)C)c1C1C(C(=O)OC)=C(C)NC(=O)N1C(=O)OCC", "note": "(stereo not drawn) [PPK-36, 3,6-dihydro-4-methyl-6-[2-isopropoxy-6-pentadecylphenyl]-2-oxo-1,5-(2H)-pyrimidinedicarboxylic acid 1-ethyl 5-methyl diester]", "values": [
      {"measurement": "melting point", "value": "120 to 121", "unit": "°C"}
    ]},
    {"smiles": "CCCCCCCCCCCCCCCc1cccc(OC(C)C)c1C1C(C(=O)OCC)=C(C)NC(=O)N1C(=O)OCC", "note": "(stereo not drawn) [PPK-37, 3,6-dihydro-4-methyl-6-[2-isopropoxy-6-pentadecylphenyl]-2-oxo-1,5-(2H)-pyrimidinedicarboxylic acid 1,5-diethyl diester]", "values": [
      {"measurement": "melting point", "value": "90 to 92", "unit": "°C"}
    ]},
    {"smiles": "CCCCCCCCCCCCCCCc1cccc(OC(C)C)c1C1C(C(=O)OC(C)C)=C(C)NC(=O)N1C(=O)OCC", "note": "(stereo not drawn) [PPK-38, 3,6-dihydro-4-methyl-6-[2-isopropoxy-6-pentadecylphenyl]-2-oxo-1,5-(2H)-pyrimidinedicarboxylic acid 1-ethyl 5-isopropyl diester]", "values": [
      {"measurement": "melting point", "value": "88 to 90", "unit": "°C"}
    ]}
  ]
}
